In patent US8563596B2, “Enantiomerically pure compounds for the treatment of proliferative disorders” (Piramal Enterprises Limited, priority 2006, dated 2013):
Where two headings read alike, the source gives them in different places.

Key:
[1] = molecular target: T1, CDK4-cyclin D1 (Homo sapiens, UniProt P11802); assay: CDK4/Cyclin D1 kinase assay (32P phosphorylation of GST-Rb, filter plate); assay type: biochemical; conditions: 30 min at 30° C.; GST-Rb substrate
T1 construct: made in house; host or cells: Sf9 insect cells (baculovirus)
Excerpt: (§1) CDK4/Cyclin D1 Kinase Assay and CDK2/Cyclin E Kinase Assay
(§2) The assays measure phosphorylation of retinoblastoma protein (Rb) by CDK4 or CDK2 upon activation by cyclin D1 or cyclin E, respectively, through the transfer of (γ^32P)-phosphate from γ^32P-ATP in a 96-well filter plate assay.
(§3) CDK4 or CDK2 was co-expressed with cyclin D1 or cyclin E, respectively, by a baculovirus expression system in insect cells. For this, 1×10^7 Sf9 cells were coinfected with baculoviruses containing human CDK-4 or 2 and cyclin D1 or E genes and after 72 hours cells were lysed in 500 μl of a lysis buffer (50 mM HEPES (pH 7.5), 10 mM MgCl2, 1 mM DTT, 5 μg/ml of aprotinin, 5 μg/ml of leupeptin, 0.1 mM NaF, 0.2 mM phenylmethylsulfonyl fluoride (PMSF), and sodium orthovanadate. Centrifuged lysate was purified on a GST-sepharose column. Purity of the proteins was checked by SDS-PAGE followed by western blots using specific antibodies (Santacruz Biotec, USA) to CDK4 or CDK2.
(§4) GST-retinoblastoma (Rb) (aa 776-928) fusion protein is expressed in the bacteria E. coli and purified by GSH-Sepharose affinity chromatography. The GST-Rb bound to these beads served as the substrate in the assay.
(§5) Quantitation was by scintillation detection of (^32P)-GST-Rb in 96-well filter plates using Top Count scintillation 96-well counter (Packard, USA).
The CDK4 or CDK2 enzyme assay was run in 96-well format using Millipore ultiscreen filtration plates. All assay steps took place in a single filter plate (Unifilter plates, Packard, USA). The filtration wells were pre-wet with kinase buffer (100 μl/well) and the solution was then removed by the application of vacuum, with the filter plate on a vacuum manifold and the vacuum on. 50 μl of GST-Rb bound to GSH-Sepharose beads in kinase buffer (0.5 μg GST-Rb/50 μl) was added to each well and vacuum was applied to remove the buffer. […] The plate was counted in a Packard Top Count Scintillation Counter for 10 min. […]

[2] = molecular target: T2, CDK2-cyclin E (Homo sapiens, UniProt P24941); assay: CDK2/Cyclin E kinase assay (32P phosphorylation of GST-Rb, filter plate); assay type: biochemical; conditions: 30 min at 30° C.; GST-Rb substrate
T2 construct: made in house; host or cells: Sf9 insect cells (baculovirus)
Excerpt: as §1, §2, §3, §4, §5
The CDK4 or CDK2 enzyme assay was run in 96-well format using Millipore ultiscreen filtration plates. All assay steps took place in a single filter plate (Unifilter plates, Packard, USA). The filtration wells were pre-wet with kinase buffer (100 μl/well) and the solution was then removed by the application of vacuum, with the filter plate on a vacuum manifold and the vacuum on. 50 μl of GST-Rb bound to GSH-Sepharose beads in kinase buffer (0.5 μg GST-Rb/50 μl) was added to each well and vacuum was applied to remove the buffer. A further 25 μl of a reaction mix containing ATP (cold+hot) and phosphatase inhibitors diluted in kinase buffer were added to each well, followed by the addition of test compound (4× final concentration in kinase buffer) or kinase buffer (control) in an additional 25 μl volume. Finally 50 μl (100 ng) of human CDK-4/D1 or CDK-2/E enzyme in kinase buffer was added to each well to initiate the reaction. The reaction was incubated for 30 min at 30° C. After the reaction was complete, vacuum was applied and the plate was washed with the wash buffer (TNEN buffer) three times. The filter plate was air-dried and placed in a Multiscreen adapter plate. To each well, 30 μl Packard Microscint-O cocktail was added and the plate was covered with a Top-Seal A film. The plate was counted in a Packard Top Count Scintillation Counter for 10 min. […]

[3] = test system: A-549 (Lung); assay: In vitro cell proliferation, 3H-Thymidine uptake assay; assay type: cell-based, human; conditions: cells harvested after 72 hours
Protocol: (§6) Exponentially growing cultures of […] human cancerous cell lines (Calu1 lung, A-549 lung, HT-29 colon, HL-60 Promyelocytic Leukemia, PC-3 Prostate, H-460 Lung, MDA-MB-231 Breast, MCF-7 Breast, HeLa Cervix, Colo-205 Colon, H9 Lymphoma (T Cells), U-937 Histiocytic Lymphoma (monocytes) and CaCO-2 Colon) obtained from NCCS, Pune, India were used. The in vitro cell proliferation (NCl, USA protocol) and cytotoxicity assays were carried out using standard procedures viz. ^3H-Thymidine uptake and MTS assay, respectively (For ^3H-Thymidine uptake: Cell Biology, A Laboratory Handbook, 1998, Vol 1 Ed Julio E. Celis, and For MTS assay: Promega Protocol, USA, 2000). In the ^3H-Thymidine uptake assay, cells were harvested after 72 hours onto GF/B unifilter plates (Packard, USA) using a Packard Filtermate Universal harvester and the plates were counted on a Packard TopCount 96-well liquid scintillation counter. The concentration of compound at which 50% of proliferative activity was inhibited (IC50) and the degree of toxicity of compound were calculated for representative compounds and their pharmaceutically acceptable salts described in the Examples.

[4] = test system: Calu1 (Lung); assay: as above; assay type: cell-based, human; conditions: cells harvested after 72 hours
Protocol: as §6

[5] = test system: HT-29 (Colon); assay: as above; assay type: cell-based, human; conditions: cells harvested after 72 hours
Protocol: as §6

[6] = test system: A-549 (Lung); assay type: cell-based, human
Protocol: as §6

[7] = test system: Calu1 (Lung); assay type: cell-based, human
Protocol: as §6

[8] = test system: HT-29 (Colon); assay type: cell-based, human
Protocol: as §6

T1 sequence (P11802 whole entry): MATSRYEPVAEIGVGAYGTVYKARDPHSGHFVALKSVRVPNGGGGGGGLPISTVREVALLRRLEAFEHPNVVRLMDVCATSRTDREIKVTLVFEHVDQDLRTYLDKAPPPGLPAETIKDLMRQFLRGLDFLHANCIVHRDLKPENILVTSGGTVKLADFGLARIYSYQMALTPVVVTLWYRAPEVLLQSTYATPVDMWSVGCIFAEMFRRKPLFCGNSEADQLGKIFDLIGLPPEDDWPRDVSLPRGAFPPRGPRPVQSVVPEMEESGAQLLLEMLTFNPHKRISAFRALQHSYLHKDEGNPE
T1 sequence (P24385 whole entry partner): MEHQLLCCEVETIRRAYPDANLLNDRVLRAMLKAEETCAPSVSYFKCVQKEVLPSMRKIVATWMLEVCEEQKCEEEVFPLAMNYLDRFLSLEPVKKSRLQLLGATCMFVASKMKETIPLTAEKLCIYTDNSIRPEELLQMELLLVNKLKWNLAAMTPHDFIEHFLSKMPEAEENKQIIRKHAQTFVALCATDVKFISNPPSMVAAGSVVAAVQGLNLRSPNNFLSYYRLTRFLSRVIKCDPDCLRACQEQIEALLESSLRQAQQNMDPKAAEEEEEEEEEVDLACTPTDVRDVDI

## COc1cc(OC)c2c(=O)cc(-c3ccccc3Cl)oc2c1[C@@H]1CCN(C)[C@H]1CO
other
  melting point: 91 to 93 °C

## CN1CC[C@@H](c2c(O)cc(O)c3c(=O)cc(-c4cc(F)ccc4Cl)oc23)[C@@H]1CO
other
  melting point: 253 to 254 °C

## (+)-trans-2-(2-Chloro-4-nitrophenyl)-5,7-dihydroxy-8-(2-hydroxymethyl-1-methylpyrrolidin-3-yl)-chromen-4-one hydrochloride [Example 50]
[1]
  IC50: 0.045 µM
[2]
  IC50: 1.7 µM
[3]
  IC50: 1.2 µM
[4]
  IC50: < 0.3 µM
[5]
  IC50: 1.5 µM
[6]
  IC50: 1200 nM
[7]
  IC50: 1400 nM
[8]
  IC50: 1100 nM

## (−)-trans-2-(2-Chloro-4-nitrophenyl)-5,7-dihydroxy-8-(2-hydroxymethyl-1-methylpyrrolidin-3-yl)-chromen-4-one hydrochloride [Example 97-(D)]
[1]
  IC50: 1 µM
[2]
  IC50: > 10 µM
[5]
  IC50: 10 µM

## (+)-trans-2-(2-Chlorophenyl)-5,7-dihydroxy-8-(2-hydroxymethyl-1-methyl-pyrrolidin-3-yl)-chromen-4-one hydrochloride [Example 10]
[1]
  IC50: 0.065 µM
[2]
  IC50: 2.8 µM
[3]
  IC50: 0.18 µM
[4]
  IC50: < 0.3 µM
[5]
  IC50: 0.68 µM
[6]
  IC50: 700 nM
[7]
  IC50: 880 nM
[8]
  IC50: 580 nM

## (−)-trans-2-(2-Chlorophenyl)-5,7-dihydroxy-8-(2-hydroxymethyl-1-methyl pyrrolidin-3-yl)-chromen-4-one hydrochloride [Example 96-(F)]
[2]
  IC50: 21 µM
[3]
  IC50: 10 µM
[5]
  IC50: 25 µM
[6]
  IC50: 16000 nM
[7]
  IC50: 16300 nM
[8]
  IC50: 17900 nM
